Results published in patent US6878269B2, “Device for body fluid purification and system for body fluid purification” (Kaneka Corporation, priority 1996, dated 2005).

Columns and labels:
[1] = system: β2-microglobulin or chemokines; assay: Adsorbing ability of immobilized compounds of various log P values; type: binding; details: compound immobilized on carrier
Source text: In discovering compounds effective for adsorbing substances related to malady in body fluid, in particular, for adsorbing β2-microglobulin or chemokines, compounds having various log P values have been examined in a state of being immobilized.

[2] = octanol-water system, found value; cited from earlier work

CCCCCCCCN [n-octylamine]
adsorbing ability for β2-microglobulin or chemokines [1]: enhanced to a great extent

CCCCCCCCCCCCCCCCN [hexadecylamine]
adsorbing ability for β2-microglobulin or chemokines [1]: further enhanced

CCCCN [n-butylamine]
log P [2]: 0.97

CCCCCCCCCCCCCCCCCCN [octadecylamine]
adsorbing ability for β2-microglobulin or chemokines (guessed) ([1]; guessed and not tested): equivalent to or better than that of hexadecylamine
